Assay results published in patent US20060035946A1, “Amyloid-binding, metal-chelating agents” (The General Hospital Corporation, priority 2003, published 2006).

Key:
[1] = tested on: cortical amyloid accumulation; settings: Tg2576 transgenic mouse model for Alzheimer's disease; R. A. Cherny et al., Neuron 2001; cited from earlier work
Aβ1-40 [2] = biological target: T1, Aβ1-40 (Homo sapiens, UniProt P05067); assay: Inhibition of Zn2+-induced aggregation of Aβ measured by turbidity; type: biochemical; settings: Aβ1-40 10 μM, Zn2+ 25 μM, compound 25 μM, pH 7.4; FIG. 8
T1 construct: Human Aβ peptides (Aβ1-40 and Aβ1-42) were synthesized; purchased W. M. Keck Foundation Biotechnology Resource Laboratory (Yale); Glabe Laboratory (UC Irvine); Multhaup Laboratory (Heidelberg); U.S. Peptide, Inc; Aldrich-Sigma; host or cells: chemical synthesis (solid-phase Fmoc)
Excerpt: (§1) Human Aβ peptides (Aβ1-40 and Aβ1-42) were synthesized using solid-phase Fmoc chemistry at the W. M. Keck Foundation Biotechnology Resource Laboratory (Yale University, New Haven, Conn.); Glabe Laboratory (University of California, Irvine, Calif.); or Multhaup Laboratory (University of Heidelberg, Germany); or purchased from U.S. Peptide, Inc. (Rancho Cucamonga, Calif.); or Aldrich-Sigma (St. Louis, Mo.). The syntheses were confirmed by purification by reverse-phase HPLC, amino acid sequencing, and mass spectrometry. Synthetic Aβ peptides were dissolved in trifluoroethanol (30% in Milli-Q water (Millipore Corporation, Milford, Mass.)) or 20 mM HEPES (pH 8.5) at a concentration of […], centrifuged for 20 minutes at 10,000×g and the supernatant (stock Aβ) used for subsequent assays on the day of the experiment.
Turbidity measurements were performed as previously described (X. Huang et al., J. Biol. Chem. 1997, 272: 26464-26470). […] Subsequently, 20 μL aliquots of 10 mM of the bifunctional molecule to be tested or 10 mM Zn^2+ were added to the mixture alternatively, and following a 2 min. delay, a further four readings were taken at 1 min. intervals. After the final addition of the bifunctional molecule and turbidity reading, the mixtures were incubated for an additional 30 minutes before taking the last readings. […]

Aβ1-40 [3] = biological target: T1, Aβ1-40; assay: MRI signals from spherical phantoms in the presence of Aβ1-40; type: binding; settings: PBS pH 7.4, FIG. 11
Excerpt: as §1
(§2) Different solution mixtures (containing a contrast imaging agent, Gd-XH1 or Gd-DTPA, in the presence or absence of Aβ1-40, Aβ1-42 or HSA in PBS, pH 7.4) were injected into 4.5-mL hollow spheres (made of polypropylene) and subjected to a 3-T magnetic scanner (Simens). Spin-Echo scanning mode was used and T1 signals were measured for each solution using 12 TR values (TE=5 ms), with R1=1/T1, and R1(obs)=R1(O)+R1 (Gd-XH1-Aβ1-40 or -Aβ1-42).

HSA = HSA (Homo sapiens, UniProt P02768); assay: MRI signals from spherical phantoms in the presence of HSA; type: binding; settings: PBS pH 7.4, FIG. 11
Protocol: as §2

[4] = tested on: E17 rat cortical primary neurons; assay: Neurotoxicity in primary neuronal culture (LDH release and MTT assays); type: cell-based; settings: XH1 0, 1 or 10 μM, 48 hours after treatment; FIG. 9A
Excerpt: A primary neuronal culture was used to test the neurotoxicity of the parent bifunctional molecule, XH1. E17 rat cortical primary neurons were obtained from pathogen-free female Sprague-Dawley rats (purchased from Taconic Farms, Mass.) after 17 days of gestation, as described by G. J. Brewer and C. W. Cotman (in Brain Res. 1989, 494: 65-74). The protocol used allowed long-term culture of neurons at low density under precisely defined culture conditions. This protocol provided up to 90% neuronal culture. It was desirable that a small population of glial cells be co-cultured with the rat cortical primary neurons as these cells support neuronal survival. Cytosine arabinoside (1 μM) was used to control the growth of glial cells in the culture preparation. The neuronal population was checked regularly using neuron-specific enolase (and/or astroglia-specific S100β) immunohistochemistry.
E17 rat cortical primary neurons were grown under 95% […], 5% CO2, 85% humidity conditions, at 37° C. for 4 days in serum-free Neurobasal™ medium with B-27 supplement (Life Technologies, Inc.), 20 μM L-glutamate, 100 units/mL penicillin, […] streptomycin, and 2 mM L-glutamine. On the 5th day (treatment day), the medium was replaced with serum-free Neurobasal™ medium plus L-glutamine without B-27 supplement. […]

[5] = tested on: human SH-SY5Y neuroblastoma cells; assay: Neurotoxicity in neuroblastoma cells (LDH release assay); type: cell-based; settings: XH1 0, 1, 5 or 10 μM, 48 hours after treatment; FIG. 9B
Protocol: The neurotoxicity of XH1 was also tested on human SH-SY5Y neuroblastoma cells. The SH-SY5Y cell line is commonly used to study neuritogenesis, differentiation, and tumorigenesis (D. Vu et al., Brain Res. Mol. Brain Res. 2003, 115: 93-103). SH-SY5Y cells were obtained from American Type Culture Collection and grown in Dulbecco's modified Eagle's medium supplemented with 10% fetal bovine serum (Gibco-BRL) and antibiotics.
Human SH-SY5Y neuroblastoma cells were incubated in the presence of XH1 (0, 1, 5 or 10 μM) (95% […], 5% CO2, 85% humidity, 37° C.) and cell viability was assessed 48 hours after treatment using the LDH release assay as described above.

APP = assay: Determination of APP protein synthesis by SDS-PAGE in SH-SY5Y cells; type: cell-based, human; settings: increasing XH1 concentration, 48 hours, FIG. 10A
Protocol: (§3) In SH-SY5Y human neuroblastoma cells, the capacity of XH1 to suppress APP synthesis was measured by SDS-PAGE. Control proteins (β-tubulin and/or two amyloid-precursor-like proteins, APLP1 and APLP2) were used to ensure target suppression specificity of the inventive bifunctional molecule.
(§4) SDS-PAGE. SH-SY5Y human neutoblastoma cells were harvested and washed with cold PBS three times and then lysed with M-PER™ mammalian protein extraction reagent (Pierce) mixed with protease inhibitor cocktails (Roche). The cell lysate was […] for 15 minutes at 13,000 rpm in a cold room, and the supernatants were BCA assayed for total protein concentrations. Protein blotting was performed on pre-casted NuPAGE™ 4-12% Bis-Tris Gel (Invitrogen) with equal protein loading (15 μg/well). It was run at 200 V for 45 minutes and transferred at 75 mA/gel for 95 minutes. The blots were probed by primary and secondary antibodies according to manufacturer's instructions and finally washed for 2-3 hours at 15 min. intervals. The blots were then developed using a chemiluminescent kit (Pierce).

β-tubulin = assay: Control protein expression by SDS-PAGE in SH-SY5Y cells; type: cell-based, human; settings: same conditions as APP, FIG. 10A
Protocol: as §3, §4

APLP1 = assay: Control protein synthesis by SDS-PAGE in SH-SY5Y cells; type: cell-based, human; settings: XH1 up to 10 μM, FIG. 10B
Protocol: as §3, §4

APLP2 = assay: as above; type: cell-based, human; settings: XH1 up to 10 μM, FIG. 10B
Protocol: as §3, §4

T1 sequence (P05067 672-711 limits assumed): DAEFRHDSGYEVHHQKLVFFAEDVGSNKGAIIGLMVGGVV
HSA, sequence (P02768 25-609): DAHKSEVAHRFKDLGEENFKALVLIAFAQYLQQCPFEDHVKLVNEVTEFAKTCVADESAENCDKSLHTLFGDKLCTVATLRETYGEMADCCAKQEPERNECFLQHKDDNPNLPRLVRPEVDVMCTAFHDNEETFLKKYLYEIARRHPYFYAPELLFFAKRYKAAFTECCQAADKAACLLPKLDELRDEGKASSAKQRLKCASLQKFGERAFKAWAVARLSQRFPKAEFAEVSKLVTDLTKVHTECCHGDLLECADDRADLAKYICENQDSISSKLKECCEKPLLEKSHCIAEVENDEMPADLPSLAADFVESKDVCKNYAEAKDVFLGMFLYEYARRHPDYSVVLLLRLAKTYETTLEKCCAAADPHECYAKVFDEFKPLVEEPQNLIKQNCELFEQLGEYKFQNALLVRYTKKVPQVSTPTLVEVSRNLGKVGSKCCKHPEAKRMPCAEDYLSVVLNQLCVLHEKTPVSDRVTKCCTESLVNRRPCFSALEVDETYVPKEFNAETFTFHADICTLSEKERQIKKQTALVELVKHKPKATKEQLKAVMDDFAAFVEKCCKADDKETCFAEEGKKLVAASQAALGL

Oc1c(I)cc(Cl)c2cccnc12 [Clioquinol]
cortical amyloid accumulation [1]: marked inhibition

O=C(O)CN(CCN(CC(=O)O)CC(=O)O)CCN(CC(=O)O)CC(=O)O [DTPA, diethylene triaminepentaacetic acid, reference compound]
Zn2+-induced aggregation of Aβ1-40 in solution (turbidity at 400 nm) (Aβ1-40 [2]): significantly decrease

O=C([O-])CN(CCN(CC(=O)[O-])CC(=O)O)CCN(CC(=O)[O-])CC(=O)O.[Gd+3] [Gd-DTPA]
effect on MRI signal of combination with Aβ (Aβ1-40 [3]): No effects | effect on MRI signal of combination with HSA (HSA): No effects

O=C(O)CN(CCN(CC(=O)O)CC(=O)Nc1ccc(-c2nc3ccccc3s2)cc1)CCN(CC(=O)O)CC(=O)Nc1ccc(-c2nc3ccccc3s2)cc1 [XH1]
Zn2+-induced aggregation of Aβ1-40 in solution (turbidity at 400 nm) (Aβ1-40 [2]): significantly decrease | cell death (LDH release and MTT assays) [4]: does not induce any significant cell death | cell death (LDH release assay) [5]: does not cause any significant cell death | APP synthesis (APP): decrease in APP synthesis | β-tubulin expression (β-tubulin): no effects | APLP1 synthesis (APLP1): did not affect | APLP2 synthesis (APLP2): did not affect
